The record followed here is patent US6448240B1, “Synergistic fungicidal and/or bactericidal composition” (Aventis CropScience, S.A., priority 1997, dated 2002).

In the test the test system is Plasmopara viticola (grapevine downy mildew). Kind of test: In-vivo test of famoxadone and fosetyl-aluminium on grapevine downy mildew, preventative treatment 5 days before inoculation. On the set-up: species or system Plasmopara viticola on Vitis vinifera cv. Chardonnay. To be noted: 5-day-preventative spray on grapevine cuttings; evaluated 7 days after inoculation; 3 replications. As for the experimental part: Example 1: In-vivo test of the combination of famoxadone and fosetyl-aluminium on Plasmopara viticola (grapevine downy mildew) by preventative treatment 5 days before inoculation. Dispersible granules of 50% compound A (famoxadone) and dispersible granules of 80% compound B (fosetyl-aluminium) are used. Dilute suspensions are prepared from these compositions by diluting them with water, and the two liquids are mixed in such a way that different ratios of the two products famoxadone and fosetyl are obtained. The A/B ratios studied were selected between 1/10 and 1/1, that is to say equalling 0.1-0.2 and 1. Grapevine cuttings (Vitis vinifera), cv. Chardonnay are grown in pots. When these plants are 2 months old (8- to 10-leaf stage, height 10 to 15 cm), they are treated by being sprayed with the suspension above. […] These spores are suspended at 100,000 units per cm^3 of inoculum. Inoculation is performed by spraying the underside of the leaves with the inoculum. The inoculated plants are then incubated for seven days at 20-22° C. and a relative humidity of 90-100% under natural light. The test is evaluated 7 days after inoculation by comparing the plants with the control plants.

Turning to `CCO[PH](=O)O` [fosetyl - aluminium, fosetyl-aluminium], the “ED70 (effective dose which has a 70% control effect on the disease)” value is greater than 2000 mg/L and the “ED90 (effective dose which has a 90% control effect on the disease)” value was greater than 2000 mg/L.
As for `C[C@@]1(c2ccc(Oc3ccccc3)cc2)OC(=O)N(Nc2ccccc2)C1=O` (racemic) [famoxadone, 5-methyl-5-(4-phenoxyphenyl)-3-(phenylamino-2,4-oxazolidinedione)], the “ED70 (effective dose which has a 70% control effect on the disease)” value was 2 mg/L and the “ED90 (effective dose which has a 90% control effect on the disease)” value is 5.5 mg/L.
